The record followed here is US9464084B2, “P2X7 modulators” (Janssen Pharmaceutica NV, priority 2013, dated 2016).

The target in assay [1] is T1, rat P2X7 (Rattus norvegicus (Rat), UniProt Q64663). The assay is described as follows: Ca2+ flux (FLIPR) in 1321N1 cells expressing recombinant rat P2X7 channel.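 Also: Calcium-4 dye fluorescence change read 180 s after agonist addition, following 30 min cell preincubation with test compound.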 Type of assay: cell-based. To be noted: 250 μM BzATP. (Calcium flux is commonly read through the fluorescence of an indicator in the cells.)
T1 sequence (Q64663 whole entry): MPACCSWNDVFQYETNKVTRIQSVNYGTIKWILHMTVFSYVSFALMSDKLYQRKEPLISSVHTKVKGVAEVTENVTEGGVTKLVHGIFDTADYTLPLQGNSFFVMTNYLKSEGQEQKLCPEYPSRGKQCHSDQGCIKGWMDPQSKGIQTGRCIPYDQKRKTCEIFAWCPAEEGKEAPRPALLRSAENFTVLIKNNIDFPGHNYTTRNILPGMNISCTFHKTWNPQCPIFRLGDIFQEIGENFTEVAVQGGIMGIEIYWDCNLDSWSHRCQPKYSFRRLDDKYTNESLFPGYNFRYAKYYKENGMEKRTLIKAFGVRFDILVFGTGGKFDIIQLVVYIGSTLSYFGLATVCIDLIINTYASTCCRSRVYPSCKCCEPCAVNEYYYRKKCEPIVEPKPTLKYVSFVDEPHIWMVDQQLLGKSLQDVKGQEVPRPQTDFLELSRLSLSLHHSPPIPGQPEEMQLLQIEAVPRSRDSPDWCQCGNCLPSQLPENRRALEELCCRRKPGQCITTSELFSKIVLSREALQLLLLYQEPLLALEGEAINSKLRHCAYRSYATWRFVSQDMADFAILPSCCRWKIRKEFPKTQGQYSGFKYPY
Protocol: Cells were seeded at a density of 25000 cells/well (96-well clear bottom black walled plates) in 100 μl volume/well. On the day of the experiment, cell plates were washed with assay buffer, containing (in mM): 130 NaCl, 2 KCl, 1 CaCl2, 1 MgCl2, 10 HEPES, 5 glucose; pH 7.40 and 300 mOs. After the wash, cells were loaded with the Calcium-4 dye (Molecular Device) and incubated in the dark for 60 minutes. Test compounds were prepared at 250× the test concentration in neat DMSO. Intermediate 96-well compound plates were prepared by transferring 1.2 μL of the compound into 300 μL of assay buffer. A further 3× dilution occurred when transferring 50 μL/well of the compound plate to 100 μL/well in the cell plate. Cells were incubated with test compounds and dye for 30 minutes. […] The fluorescence change was measured 180 seconds after adding the agonist.
The target of assay [2] is T2, P2X7 (Homo sapiens (Human), UniProt Q99572). The assay is described as follows: P2X7 antagonism in human PBMCs (LPS + Bz-ATP induced IL-1β release, ELISA).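 Also: PBMCs from donor human blood, with a further 1.5 h incubation of the cells in the assay.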 Type of assay: cell-based. Particulars: compound 10 μM, LPS 30 ng/ml, Bz-ATP 0.5 mM.
T2 sequence (Q99572 whole entry): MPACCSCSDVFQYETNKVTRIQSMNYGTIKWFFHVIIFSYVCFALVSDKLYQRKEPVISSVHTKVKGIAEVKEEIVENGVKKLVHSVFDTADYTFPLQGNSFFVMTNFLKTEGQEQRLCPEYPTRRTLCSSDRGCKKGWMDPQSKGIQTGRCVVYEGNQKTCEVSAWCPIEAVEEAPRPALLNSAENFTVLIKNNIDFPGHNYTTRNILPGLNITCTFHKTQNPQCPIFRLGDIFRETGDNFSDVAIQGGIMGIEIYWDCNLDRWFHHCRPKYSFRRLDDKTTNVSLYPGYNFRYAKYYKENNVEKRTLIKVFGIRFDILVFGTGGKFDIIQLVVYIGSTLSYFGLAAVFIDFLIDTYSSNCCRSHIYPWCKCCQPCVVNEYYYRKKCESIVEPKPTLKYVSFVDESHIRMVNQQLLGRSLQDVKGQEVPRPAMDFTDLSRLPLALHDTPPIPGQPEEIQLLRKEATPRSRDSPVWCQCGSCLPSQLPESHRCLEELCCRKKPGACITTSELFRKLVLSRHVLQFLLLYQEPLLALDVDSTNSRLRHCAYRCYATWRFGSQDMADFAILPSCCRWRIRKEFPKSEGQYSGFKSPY
Protocol: Human blood was collected using a blood donor program. PBMCs were isolated from blood using a Ficoll density gradient technique. Briefly, blood was laid on Ficoll solution and centrifuged at RT for 20 minutes at 2000 rpm. The buffy layer (between red blood cells and plasma) was carefully collected by aspiration, washed with PBS and centrifuged again at 1500 rpm for 15 minutes. The resulting cell pellet was washed and plated on 96 well-plates for experiments. For the Mouse/Human Whole Blood experiments, 150 μl of either mouse or human blood was platted on 96 well-plates. Lipopolysaccharide (LPS) (30 ng/ml) was added to each well and incubated for 1 hour. Test compounds were then added and incubated for 30 minutes. The P2X7 agonist, 2′(3′)-O-(4-benzoylbenzoyl) adenosine 5′ triphosphate (Bz-ATP) was then added at a final concentration of 0.5 mM (PBMC) or 1 mM (blood). Cells were incubated for an additional 1.5 hours. At that point, supernatant was collected and stored for IL-1β assay using manufacturer's protocol for enzyme-linked immunosorbent assay (ELISA). Data was expressed as percent control, where control is defined as the difference in IL-1β release in LPS+Bz-ATP samples and LPS only samples. Data was plotted as response (% control) versus concentration to generate IC50 values.
The target of assay [3] is T1, rat P2X7. The assay is described as follows: Radioligand binding, tritiated A-804598, rat P2X7-1321N1 cell membranes. Particulars: 1 hour at 4° C.
Protocol: (§1) On the day of the experiment, cell membrane preparations were made according to standard published methods. […] The assay was terminated by filtration (GF/B filters pre-soaked with 0.3% PEI) and washed with washing buffer (Tris-HCl 50 mM). The IC50 generated in the binding assay was corrected for tracer concentration and affinity of the tracer to derive at the affinity (Ki) of the test compounds.
For assay [4], the target named is T2, P2X7. The assay is described as follows: Radioligand binding, tritiated A-804598, human P2X7-1321N1 cell membranes.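 Also: ki obtained from the binding IC50 after correction for tracer concentration and tracer affinity.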 To be noted: 1 hour at 4° C.
Protocol: as §1
Assay [5] concerns the target T2, P2X7. The assay is described as follows: Ca2+ flux (FLIPR) in 1321N1 cells expressing recombinant human P2X7 channel.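 Also: Calcium-4 dye-loaded cells exposed to compound for 30 min before agonist addition, fluorescence change read 180 s after agonist.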 Type of assay: cell-based. Particulars: 250 μM BzATP.

The structures appear in SMILES notation.

By IC50 is commonly meant the point on the concentration scale where inhibition reaches its midpoint. Broadly, the Ki is a dissociation constant, usually derived from enzyme kinetics or from competition with a known ligand. For the compound `Cc1ccnc(-n2nnc3c2CCN(C(=O)c2cccc(C(F)(F)F)c2Cl)[C@@H]3C)n1` [Example 235, (4R)-(2-Chloro-3-(trifluoromethyl)phenyl)(4-methyl-1-(4-methylpyrimidin-2-yl)-6,7-dihydro-1H-[1,2,3]triazolo[4,5-c]pyridin-5(4H)-yl)methanone], the figures for the IC50 in assay [1] and in assay [5] were 6.6 nM and 5.4 nM, respectively. Moreover, the “PBMC 10 μM (% control)” value in assay [2] is −3.7 % control. For the same compound, the Ki in assay [3] stood at 3.1 nM; in assay [4], 14.1 nM.
